Measurements from patent US10689381B2 (priority 2017, dated 2020).
Read-outs that look alike come from different tables or passages of the source.

How the values were obtained:
HCT116 = assay: cells; assay type: cell-based, human; conditions: for potency relative to vinblastine (more potent): vinblastine-sensitive cell lines
Method in brief: (§1)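 Cells seeded at 30,000 cells/mL in DMEM with 10% FBS, then exposed for 72 h to compound at six concentrations spanning 0–1000 nM or 0–10000 nM, in duplicate. Final incubation at 37 °C lasted 5 min for L1210 and 15 min for HCT116.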

HCT116/VM46 = assay: cells; assay type: cell-based, human; conditions: table in Background, C20′ substituent X; read-out: IC50, HCT116/VM46
Procedure: Compounds were tested for their cell growth inhibition of L1210 (ATCC no. CCL-219, mouse lymphocytic leukemia), HCT116 (ATCC no. CCL-247, human colorectal carcinoma), and HCT116/VM46 (a vinblastine-resistant strain of HCT116) cells in culture. A population of cells (>1×10^6 cells/mL as determined with a hemocytometer) was diluted with Dulbecco's Modified Eagle Medium (DMEM, Gibco) containing 10% fetal bovine serum (FBS, Gibco) to give a final concentration of 30,000 cells/mL. To each well of a 96-well plate (Corning® Costar®) was added 100 μL of the cell media solution with a multichannel pipet. The cultures were incubated at 37° C. in an atmosphere of 5% CO2 and 95% humidified air for 24 hours.
The test compounds were then added to the plate as follows: test compounds were diluted in DMSO to a concentration of 1 mM. 10-Fold serial dilutions in DMSO were next performed on a separate 96-well plate. Fresh culture media (100 μL) was added to each well of cells resulting in 200 μL of medium per well followed by 2 μL of each test agent. Compounds were tested in duplicate (n=2-8 times) at six concentrations between 0-1000 nM or 0-10000 nM. Following the addition of compound, cultures were incubated for an additional 72 hours.
The plates were incubated at 37° C. for 5 minutes (L1210) or 15 min (HCT116 and HCT116/VM46). After the given incubation time, 50 μL of 0.1 N NaOH was added to each well and the absorption at 405 nm was determined using a 96 well plate reader. […]

L1210 = assay: cells; assay type: cell-based, mouse
Method in brief: as §1

Tubulin = conditions: for percent (%) displacement of tubulin-bound BODIPY-vinblastine: FIG. 2, competitive ligand 18 μM
Procedure: Control studies were performed with BODIPY-VBL in the absence of a competitive ligand (control 1, maximum FI enhancement) and in the absence of tubulin (control 2, no FI enhancement). Percent (%) BODIPY-VBL displacement was calculated by the formula: (control 1 FI−experiment FI)/(Control 1 FI−Control 2 FI)×100%. Reported values are the average of 5 measurements±SD.

A549-T24 = assay: cells; assay type: cell-based, human
Excerpt: (§2) 2001, 98:11737; Kavallaris et al., Brit. J. Cancer. 1999, 80:1020; and Kavallaris et al., J. Clin. Invest. 1997, 100:1282]. As a result, the comparison of cell growth inhibition of candidate drugs against A549 vs A549-T24 has been used to characterize potential resistance due to increased expression of class III β-tubulin [Goncalves et al., Proc. Natl. Acad. Sci. USA. 2001, 98:11737; Kavallaris et al., Brit. J. Cancer. 1999, 80:1020; and Kavallaris et al., J. Clin. Invest. 1997, 100:1282].

A549 = assay: cells; assay type: cell-based, human; conditions: read-out: IC50 A549
Excerpt: as §2

[1] = table in Background, C20′ substituent X, read-out: IC50, HCT116

For CCC1C[C@H]2CN(CCc3c([nH]c4ccccc34)[C@@](C(=O)OC)(c3cc4c(cc3OC)N(C)[C@H]3[C@@](O)(C(=O)OC)[C@H](OC(C)=O)[C@]5(CC)C=CCN6CC[C@]43[C@@H]65)C2)C1 (stereo partly shown) [Compound 4, reference compound], the IC50 (HCT116; [1]) was 60 nM and the IC50 (HCT116/VM46) was 600 nM.
Compound CC[C@]1(N=[N+]=[N-])C[C@H]2CN(CCc3c([nH]c4ccccc34)[C@@](C(=O)OC)(c3cc4c(cc3OC)N(C)[C@H]3[C@@](O)(C(=O)OC)[C@H](OC(C)=O)[C@]5(CC)C=CCN6CC[C@]43[C@@H]65)C2)C1 [Compound 5, 20′-azidovinblastine] has an IC50 (HCT116; [1]) of 690 nM and an IC50 (HCT116/VM46) of 5500 nM.
For CC[C@]1(N)C[C@H]2CN(CCc3c([nH]c4ccccc34)[C@@](C(=O)OC)(c3cc4c(cc3OC)N(C)[C@H]3[C@@](O)(C(=O)OC)[C@H](OC(C)=O)[C@]5(CC)C=CCN6CC[C@]43[C@@H]65)C2)C1 [Compound 6, 20′-aminovinblastine], the IC50 (HCT116; [1]) was 600 nM and the IC50 (HCT116/VM46) was over 10000 nM.
With CCC1(NC(=O)c2ccccc2)CC2CN(CCc3c([nH]c4ccccc34)C(C(=O)OC)(c3cc4c(cc3OC)N(C)C3C(O)(C(=O)OC)C(OC(C)=O)C5(CC)C=CCN6CCC43C65)C2)C1 (stereo not shown) [Compound 24] the IC50 (L1210; Table 2) was 1.1 nM, the “potency relative to saturated cyclohexyl counterpart Compound 20 (more potent)” value (HCT116) was over 50 fold and the IC50 (HCT116; Table 2, read-out: IC50 HCT116) was 0.8 nM. The “potency relative to vinblastine (more potent)” value (HCT116) was over 5 fold and the “percent (%) displacement of tubulin-bound BODIPY-vinblastine” value (Tubulin) was 72±4%.
For CC[C@]1(NC(=O)c2ccc(C#N)cc2)C[C@H]2CN(CCc3c([nH]c4ccccc34)[C@@](C(=O)OC)(c3cc4c(cc3OC)N(C)[C@H]3[C@@](O)(C(=O)OC)[C@H](OC(C)=O)[C@]5(CC)C=CCN6CC[C@]43[C@@H]65)C2)C1 [Compound 54], the IC50 (L1210; Table 2) was 4.4 nM, the IC50 (HCT116; Table 2, read-out: IC50 HCT116) was 3.1 nM and the “percent (%) displacement of tubulin-bound BODIPY-vinblastine” value (Tubulin) was 56±5%.
CCC1(NC(=O)c2ccc(NC(C)=O)cc2)CC2CN(CCc3c([nH]c4ccccc34)C(C(=O)OC)(c3cc4c(cc3OC)N(C)C3C(O)(C(=O)OC)C(OC(C)=O)C5(CC)C=CCN6CCC43C65)C2)C1 (stereo not shown) [Compound 58] gave an IC50 (L1210) of 0.06 nM, an IC50 (L1210; Table 2) of 1.6 nM and an IC50 (HCT116; Table 2, read-out: IC50 HCT116) of 0.8 nM. It also gave an IC50 (HCT116; read-out: IC50 HCT116) of 0.07 nM, an IC50 (A549-T24) of 0.13 nM and an IC50 (A549) of 0.17 nM.
Work on CCC1(NC(=O)c2ccc(NC(=O)OC(C)(C)C)cc2)CC2CN(CCc3c([nH]c4ccccc34)C(C(=O)OC)(c3cc4c(cc3OC)N(C)C3C(O)(C(=O)OC)C(OC(C)=O)C5(CC)C=CCN6CCC43C65)C2)C1 (stereo not shown) [Compound 60] yielded an IC50 (L1210) of 0.06 nM, an IC50 (L1210; Table 2) of 0.3 nM and an IC50 (HCT116; Table 2, read-out: IC50 HCT116) of 0.3 nM. The IC50 (HCT116; read-out: IC50 HCT116) was 0.07 nM, the IC50 (A549-T24) was 0.09 nM and the IC50 (A549) was 0.19 nM.
Work on CC[C@]1(NC(=O)c2ccc(NS(C)(=O)=O)cc2)C[C@H]2CN(CCc3c([nH]c4ccccc34)[C@@](C(=O)OC)(c3cc4c(cc3OC)N(C)[C@H]3[C@@](O)(C(=O)OC)[C@H](OC(C)=O)[C@]5(CC)C=CCN6CC[C@]43[C@@H]65)C2)C1 [Compound 61] yielded an IC50 (L1210) of 0.06 nM, an IC50 (L1210; Table 2) of 0.4 nM and an IC50 (HCT116; Table 2, read-out: IC50 HCT116) of 0.3 nM. It also gave an IC50 (HCT116; read-out: IC50 HCT116) of 0.07 nM, an IC50 (A549-T24) of 0.26 nM and an IC50 (A549) of 0.53 nM.
In the case of CC[C@]1(NC(=O)c2ccc(N(C)C)cc2)C[C@H]2CN(CCc3c([nH]c4ccccc34)[C@@](C(=O)OC)(c3cc4c(cc3OC)N(C)[C@H]3[C@@](O)(C(=O)OC)[C@H](OC(C)=O)[C@]5(CC)C=CCN6CC[C@]43[C@@H]65)C2)C1 [Compound 64], the IC50 (L1210; Table 2) is reported as 0.18 nM, the IC50 (HCT116; Table 2, read-out: IC50 HCT116) is reported as 0.18 nM and the “percent (%) displacement of tubulin-bound BODIPY-vinblastine” value (Tubulin) is reported as 88±5%.
CCC1(NC(=O)c2ccc3c(c2)CCCC3)CC2CN(CCc3c([nH]c4ccccc34)C(C(=O)OC)(c3cc4c(cc3OC)N(C)C3C(O)(C(=O)OC)C(OC(C)=O)C5(CC)C=CCN6CCC43C65)C2)C1 (stereo not shown) [Compound 121] showed an IC50 (L1210) of 3 nM, an IC50 (L1210; Table 4) of 3.3 nM and an IC50 (HCT116; Table 4, read-out: IC50 HCT116) of 4.9 nM. The IC50 (HCT116; Table 9, read-out: IC50 (nM, HCT116)) was 4.9 nM, the IC50 (HCT116; Table 10, read-out: IC50 (nM), HCT116) was 4.9 nM and the IC50 (HCT116; read-out: IC50 HCT116) was 4.9 nM. The “potency relative to vinblastine (more potent)” value (HCT116) was “about 2 fold”, the IC50 (A549-T24) was 6.5 nM and the IC50 (A549) was 7.6 nM. For the same compound, the “% displacement” value (Tubulin; Table 9, displacement of tubulin bound BODIPY-vinblastine) was 63 ± 5% and the “relative tubulin binding affinity vs vinblastine” value (Tubulin; in words, b167) was “essentially indistinguishable from or perhaps slightly better than that of vinblastine”.
